Experimental data published in patent publication US11506670B2, “Method of genome-wide direct identification of electrophile-sensing targets” (Cornell University, priority 2018, dated 2022).

How the values were obtained:
[1] = biological target: T1, Ube2N (Homo sapiens, UniProt P61088); assay: Biotin azide/streptavidin pulldown of HNEylated proteins from mammalian lysate; type: cell-based; conditions: HEK293T, Halo-(FLAG)-Ube2V2 and HA-Ube2N
T1 construct: expressed in transfected cells; host or cells: HEK 293T
Procedure: HEK 293T cells were seeded in 60 cm^2 plate. After the cells reached 60% confluence (˜18-24 h), the old media were replaced with fresh 8 mL complete media. Cells were transfected with 7.5 μg of the designated plasmids encoding the HaloTag fusion gene and 30 μL PEI (1 mg/mL) in 600 μL in Opti-MEM media for 24-36 h after which the cells were treated with 25 μM Ht-PreHNE or without alkyne (control) for 2.5 h. Rinsing and light shining protocol were as described above. Cells were harvested, washed twice with chilled 1× DPBS and flash frozen.
Mammalian cell lysis was performed in 200 μL of lysis buffer containing in final concentrations 50 mM HEPES (pH 7.6), 150 mM NaCl, 1% Nonidet P-40 and 1× Roche cOmplete, mini, EDTA-free protease inhibitor cocktail by rapid freeze-thaw (×3). Lysate was clarified by centrifugation at 18,000×g for 30 min at 4° C.
Total protein concentration from either mammalian cell lysate or zebrafish lysate was determined using Bradford assay with BSA as standard. The lysate was subsequently diluted to 2 mg/mL with a buffer made up of 50 mM HEPES (pH 7.6) and 0.3 mM TCEP, and subjected to Click reaction with biotin azide for 30 min at 37° C. The final concentrations of each components were: 1% SDS, 5% t-BuOH, 200 μM Biotin azide, 2 mM TCEP, 0.9 mM CuSO4 and 0.1 mM Cu(TBTA). The lysate proteins were precipitated by adding 4 volumes of EtOH pre-chilled at −20° C. […]

[2] = system: HaloTag; assay: Reaction of purified recombinant HaloTag with HNE, in-gel fluorescence; type: biochemical; conditions: 0-16 equiv., 20-min incubation
Procedure: HEK293T cells expressing HaloTag alone treated under standard T-REX™ delivery conditions with Ht-PreHNE were exposed to UV light (0.3 mW/cm^2, 365 nm) for the indicated time periods at which point the cells were harvested, lysed, and subjected to Click coupling and in-gel fluorescence analysis followed by western blot. Error bars designate SD (N=3). […] Purified recombinant HaloTag was treated with either the photocaged precursor Ht-PreHNE (FIG. 17, inset, and FIG. 29) (2 equiv., lane a, positive control), or directly with reactive electrophile HNE (FIG. 29) (0, 2, 4, 8, 16 equiv., lane b, c, d, e, f, respectively). After 20-min incubation, the samples were analyzed by in-gel fluorescence. M, molecular weight ladder.

T1 sequence (P61088 whole entry): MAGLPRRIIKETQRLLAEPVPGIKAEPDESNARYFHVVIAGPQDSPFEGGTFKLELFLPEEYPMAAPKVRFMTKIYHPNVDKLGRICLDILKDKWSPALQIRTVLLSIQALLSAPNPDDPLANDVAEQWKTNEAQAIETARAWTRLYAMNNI
T1 sequence (Q15819 whole entry partner): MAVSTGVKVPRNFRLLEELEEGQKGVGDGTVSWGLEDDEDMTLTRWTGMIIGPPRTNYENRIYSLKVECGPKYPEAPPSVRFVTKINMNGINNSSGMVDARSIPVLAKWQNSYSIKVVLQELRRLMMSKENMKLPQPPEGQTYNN

CCCCCC(O)/C=C/C=O (centres unmarked) [HNE, 4-hydroxynonenal]
HNEylation of Ube2N during T-REX delivery to Ube2V2 (affinity capture) [1]: no detectable HNEylation of Ube2N | reaction of HaloTag with HNE [2]: does not react
